Calls of active or inactive are those of the source. The calls are words filed in the database; no cut-off is given here.
What was measured:
[1] = test system: HeLa; assay: Cytotoxicity against human HeLa cells after 48 hrs by MTT assay; assay type: functional, cell-based
[2] = molecular target: DNA topoisomerase 2-alpha (Homo sapiens) (UniProt P11388); assay: Inhibition of human topoisomerase-2 assessed as reduction in relaxation of pBR322 plasmid DNA at 20 uM measured after 30 mins by agarose gel electrophoresis
Sequence of DNA topoisomerase 2-alpha (Homo sapiens) (P11388 whole entry): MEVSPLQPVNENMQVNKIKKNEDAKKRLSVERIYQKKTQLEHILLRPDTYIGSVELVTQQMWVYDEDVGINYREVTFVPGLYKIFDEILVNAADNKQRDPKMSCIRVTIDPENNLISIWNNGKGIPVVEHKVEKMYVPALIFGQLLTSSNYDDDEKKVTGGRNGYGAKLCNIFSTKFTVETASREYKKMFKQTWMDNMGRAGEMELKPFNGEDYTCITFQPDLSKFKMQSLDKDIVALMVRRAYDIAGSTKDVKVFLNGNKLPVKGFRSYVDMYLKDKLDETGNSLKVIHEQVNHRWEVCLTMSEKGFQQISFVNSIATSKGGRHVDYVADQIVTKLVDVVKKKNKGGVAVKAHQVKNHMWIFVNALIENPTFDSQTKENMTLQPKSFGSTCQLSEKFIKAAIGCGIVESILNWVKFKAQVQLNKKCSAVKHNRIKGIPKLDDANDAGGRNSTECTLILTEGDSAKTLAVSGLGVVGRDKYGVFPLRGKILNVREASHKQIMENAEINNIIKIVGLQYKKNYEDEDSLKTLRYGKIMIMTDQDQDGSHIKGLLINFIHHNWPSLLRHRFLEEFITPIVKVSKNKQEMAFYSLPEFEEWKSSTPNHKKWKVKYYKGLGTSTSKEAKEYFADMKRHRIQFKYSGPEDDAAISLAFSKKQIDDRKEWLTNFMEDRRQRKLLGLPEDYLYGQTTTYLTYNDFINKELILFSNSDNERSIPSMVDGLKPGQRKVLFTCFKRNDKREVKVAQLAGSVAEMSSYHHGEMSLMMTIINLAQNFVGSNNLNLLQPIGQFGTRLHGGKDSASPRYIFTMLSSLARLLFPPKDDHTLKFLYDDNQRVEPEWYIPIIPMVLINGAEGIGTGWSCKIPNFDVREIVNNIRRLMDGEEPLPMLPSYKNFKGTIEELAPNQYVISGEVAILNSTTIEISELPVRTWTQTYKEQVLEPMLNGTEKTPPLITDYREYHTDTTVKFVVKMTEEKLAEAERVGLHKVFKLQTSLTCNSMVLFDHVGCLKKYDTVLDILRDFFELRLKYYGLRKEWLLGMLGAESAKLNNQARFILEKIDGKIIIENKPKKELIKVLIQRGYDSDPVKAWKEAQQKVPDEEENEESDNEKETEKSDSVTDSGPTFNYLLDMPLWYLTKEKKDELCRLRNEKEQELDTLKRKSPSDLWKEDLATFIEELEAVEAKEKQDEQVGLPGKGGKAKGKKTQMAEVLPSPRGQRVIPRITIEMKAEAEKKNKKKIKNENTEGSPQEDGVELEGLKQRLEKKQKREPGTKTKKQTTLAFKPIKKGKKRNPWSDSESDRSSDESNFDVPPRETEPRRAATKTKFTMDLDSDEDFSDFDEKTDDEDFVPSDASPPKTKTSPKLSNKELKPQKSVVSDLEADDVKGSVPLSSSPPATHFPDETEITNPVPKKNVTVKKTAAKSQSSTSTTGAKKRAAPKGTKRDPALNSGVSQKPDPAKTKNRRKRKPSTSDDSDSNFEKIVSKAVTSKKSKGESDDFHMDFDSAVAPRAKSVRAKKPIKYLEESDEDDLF

[3] = test system: K562; assay: Cytotoxicity against human K562 cells after 48 hrs by MTT assay; assay type: functional, cell-based; conditions: K562, 48 h
[4] = test system: HL-60; assay: Cytotoxicity against human HL60 cells after 48 hrs by MTT assay; assay type: functional, cell-based; conditions: HL-60, 48 h
[5] = molecular target: T1, Topoisomerase I (Bos taurus) (UniProt Q2HPH0); assay: Inhibition of calf thymus topoisomerase-1 assessed as reduction in relaxation of pBR322 plasmid DNA at 100 uM measured after 30 mins by agarose gel electrophoresis
T1 sequence (whole entry): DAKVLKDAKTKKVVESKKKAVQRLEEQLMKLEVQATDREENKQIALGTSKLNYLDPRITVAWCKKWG

[6] = test system: A549; assay: Cytotoxicity against human A549 cells after 48 hrs by MTT assay; assay type: functional, cell-based; conditions: A549, 48 h
[7] = molecular target: DNA topoisomerase 2-alpha (Homo sapiens) (UniProt P11388); assay: Poison activity at human topoisomerase-2 assessed as linear DNA formation by measuring relaxation of supercoiled pBR322 plasmid DNA at 50 uM after 6 mins by agarose gel electrophoresis
[8] = molecular target: DNA topoisomerase 1 (Homo sapiens) (UniProt P11387); assay: Inhibition of human topoisomerase-1 assessed as DNA intercalation by measuring relaxation of supercoiled pBR322 plasmid DNA after 6 mins by agarose gel electrophoresis
Sequence of DNA topoisomerase 1 (Homo sapiens) (P11387 whole entry, looked up): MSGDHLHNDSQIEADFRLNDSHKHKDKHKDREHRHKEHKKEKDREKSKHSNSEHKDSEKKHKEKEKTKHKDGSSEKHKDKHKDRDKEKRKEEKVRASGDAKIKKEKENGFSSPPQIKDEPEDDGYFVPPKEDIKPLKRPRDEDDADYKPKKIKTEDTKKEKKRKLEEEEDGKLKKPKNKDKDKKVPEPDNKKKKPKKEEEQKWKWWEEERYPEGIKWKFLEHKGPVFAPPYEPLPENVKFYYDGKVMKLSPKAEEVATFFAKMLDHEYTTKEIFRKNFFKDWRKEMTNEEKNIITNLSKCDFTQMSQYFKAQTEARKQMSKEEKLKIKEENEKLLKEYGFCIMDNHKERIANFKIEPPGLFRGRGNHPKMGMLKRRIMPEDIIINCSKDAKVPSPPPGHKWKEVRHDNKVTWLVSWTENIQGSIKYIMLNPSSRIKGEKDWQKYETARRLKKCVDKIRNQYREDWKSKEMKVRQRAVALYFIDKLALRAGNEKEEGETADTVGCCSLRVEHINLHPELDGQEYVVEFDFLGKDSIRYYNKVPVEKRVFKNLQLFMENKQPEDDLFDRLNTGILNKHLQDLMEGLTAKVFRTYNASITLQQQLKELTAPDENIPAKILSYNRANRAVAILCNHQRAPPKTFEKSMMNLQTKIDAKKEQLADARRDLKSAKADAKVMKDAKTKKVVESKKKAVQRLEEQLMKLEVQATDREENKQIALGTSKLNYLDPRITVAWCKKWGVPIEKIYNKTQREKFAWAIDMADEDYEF

[9] = molecular target: DNA topoisomerase 2-alpha (Homo sapiens) (UniProt P11388); assay: Inhibition of human topoisomerase-2 assessed as DNA intercalation by measuring relaxation of supercoiled pBR322 plasmid DNA at 0.3 to 2.5 uM after 6 mins by agarose gel electrophoresis
[10] = molecular target: DNA topoisomerase 2-alpha (Homo sapiens) (UniProt P11388); assay: Inhibition of human topoisomerase-2 assessed as reduction in relaxation of pBR322 plasmid DNA at 10 uM measured after 30 mins by agarose gel electrophoresis

SMILES	IC50 [1] [µM]	inhibition [2]	IC50 [3] [µM]	IC50 [4] [µM]	inhibition [5]	IC50 [6] [µM]	Activity [7]	inhibition [8]	inhibition [9]	inhibition [10]
COc1cc([C@@H]2c3cc4c(cc3[C@@H](O[C@@H]3O[C@@H]5CO[C@@H](C)O[C@H]5[C@H](O)[C@H]3O)[C@H]3COC(=O)[C@H]23)OCO4)cc(OC)c1O [ETOPOSIDE]	32	Active								
O=C(O)CN1C(=O)/C(=C/c2ccc3c(c2)c2ccccc2n3Cc2ccc(F)cc2)SC1=S	> 50	Active	19.1	8.57	inactive	> 50				
Cc1ccc(Cn2c3ccccc3c3cc(/C=C4\SC(=S)N(CC(=O)O)C4=O)ccc32)cc1	> 50	inactive	29.6	17.8	inactive	> 50				
CC[C@@]1(O)C(=O)OCc2c1cc1n(c2=O)Cc2cc3ccccc3nc2-1					Active					
O=C(O)CN1C(=O)/C(=C/c2ccc3c(c2)c2ccccc2n3Cc2ccc(C(F)(F)F)cc2)SC1=S	8.2	Active	2.16	0.71	inactive	3.4	inactive	Dose-dependent effect		
O=C(O)CN1C(=O)/C(=C/c2ccc3c(c2)c2ccccc2n3Cc2ccc(Br)cc2F)SC1=S	11.7	Active	6.92	3.51	inactive	9.44				
CC[n+]1c(-c2ccccc2)c2cc(N)ccc2c2ccc(N)cc21									Active	
O=C(O)CN1C(=O)/C(=C/c2ccc3c(c2)c2ccccc2n3Cc2cccc(F)c2)SC1=S	> 50	inactive	12.8	8.29	inactive	19.8				
O=C(O)CN1C(=O)/C(=C/c2ccc3c(c2)c2ccccc2n3Cc2ccc(Cl)cc2)SC1=S	28.3	inactive	13.4	4.86	inactive	16.2				
O=C(O)CN1C(=O)/C(=C/c2ccc3c(c2)c2ccccc2n3Cc2ccc(F)cc2F)SC1=S	> 50	inactive	12.6	3.84	inactive	22.6				
O=C(O)CN1C(=O)/C(=C/c2ccc3c(c2)c2ccccc2n3Cc2ccccc2)SC1=S	> 50	inactive	21.4	14.6	inactive	32.2				
O=C(O)CN1C(=O)/C(=C/c2ccc3c(c2)c2ccccc2n3Cc2ccc([N+](=O)[O-])cc2)SC1=S	7.51	Active	2.7	0.96	inactive	3.94				Active
O=C(O)CN1C(=O)/C(=C/c2ccc3c(c2)c2ccccc2n3Cc2ccc(Br)cc2)SC1=S	> 50	inactive	28	12.7	inactive	> 50				
N#Cc1ccc(Cn2c3ccccc3c3cc(/C=C4\SC(=S)N(CC(=O)O)C4=O)ccc32)cc1	5.06	Active	1.85	0.43	inactive	2.18	inactive	Dose-dependent effect		
O=C(O)CN1C(=O)/C(=C/c2ccc3c(c2)c2ccccc2n3Cc2ccccc2F)SC1=S	21.3	inactive	11.8	1.82	inactive	13.6				
O=C(O)CN1C(=O)/C(=C/c2ccc3c(c2)c2ccccc2n3Cc2ccc(F)c(F)c2)SC1=S	15.1	Active	7.31	4.17	inactive	12.4				

Reference: ChEMBL document CHEMBL4184309, “Synthesis and biological evaluation of novel carbazole-rhodanine conjugates as topoisomerase II inhibitors” (Bioorg Med Chem Lett, 2018)
